Test results taken from PMC4674085, “Towards Prebiotic Catalytic Amyloids Using High Throughput Screening” (PLoS ONE, 2015).
Peptide text beside a SMILES is read from it.

Assay: Plate reader 4NPA hydrolysis kinetics of purified peptide amyloids at pH 7.3
Assay type: biochemical
Details: for k cat/K M = k 2 from linear fit to v 0 = [E]0 k 2[S]: pH 7.3, plate reader A400, triplicate (36 without replicates)
Method: The reaction buffer consisted of the same buffer as the fibrillization buffer without ZnCl2 and with 1.33 mM 4NPA prepared from a 100 mM stock in CH3CN. The samples of the amyloid library were mixed 1:3 with the reaction buffer yielding 40 μM peptide and, when present 250 μM zinc(II). The absorbance measurements were performed in a BMG Pherastar platereader with a 400 nm band-pass filter (10 nm bandwidth) in 96-well Nunclon Delta surface plates or 384-well Greiner Bio-One non-bind black μclear plates.
The kinetics assays performed on the purified peptides were prepared similarly except that the peptide concentration was 20 μM in the reaction. Furthermore, the various substrate concentrations and replicate samples were randomly distributed over the plate to minimize systematic errors. Various 4NPA concentrations (i.e. 0.1 mM, 0.2 mM, 0.4 mM, 0.6 mM, 1.0 mM) were added from a 100 times stock so that the final CH3CN concentration was always 1%. The linear part of the hydrolysis activity was fit with an extinction coefficient of ε = 9700 M^-1cm^-1 and corrected for the background reaction rate of buffer alone (v bg = 5.0 × 10^-6 Ms^-1) to obtain the initial reaction rate v 0. The average of the initial reaction rates at each substrate concentration were then fit to the Michaelis-Menten type kinetics to obtain k cat, K M and k cat/K M always calculated per monomer peptide. The background reaction rate was obtained similarly using 5 replicates.

| Compound | k cat/K M = k 2 from linear fit to v 0 = [E]0 k 2[S] (4NPA hydrolysis) [M⁻¹ s⁻¹] | k cat/K M (4NPA hydrolysis, pH 7.3 HEPES with zinc(II), 20 μM purified peptide, 0.1-1.0 mM 4NPA, 1% CH3CN, A400, Michaelis-Menten fit, per monomer peptide, triplicate (duplicate for 8, 27, 34, 35)) [M⁻¹ s⁻¹] | K M (4NPA hydrolysis, pH 7.3 HEPES with zinc(II), 20 μM purified peptide, Michaelis-Menten fit) [mM] | k cat (4NPA hydrolysis, pH 7.3 HEPES with zinc(II), 20 μM purified peptide, Michaelis-Menten fit, per monomer peptide) | zinc(II) dependence of 4NPA hydrolysis activity (pH 7.3) |
| --- | --- | --- | --- | --- | --- |
| c1c[nH]cn1 [Imidazole, reference compound] | 0.199 ± 0.008 |  |  |  |  |
| Ac-IHIHIQI-NH2 [Peptide 34, Ac-IHIHIQI-CONH2, reference compound] |  | 15.76 ± 0.96 | 1.57 ± 0.29 | 2.47±0.32 10^-2s^-1 |  |
| CC(=O)N[C@@H](Cc1c[nH]cn1)C(=O)NCC(=O)N[C@@H](Cc1c[nH]cn1)C(N)=O [Peptide 36, Ac-HGH-CONH2] (Ac-His-Gly-His-NH2) | 0.041 ± 0.005 |  |  |  | not zinc(II)-dependent |
